Data taken from the NIST ThermoML archive (doi:10.1021/je700670k).

Conditions: Liquid, Vibrating tube method

CCC[n+]1cccc(C)c1.O=S(=O)([N-]S(=O)(=O)C(F)(F)F)C(F)(F)F
mass density [kg/m3]
Conditions | 293.15 K | 303.15 K | 313.15 K | 323.15 K | 333.15 K | 353.15 K | 393.15 K
100 kPa | 1454.9 | 1444.4 | 1433.9 | 1423.7 | 1413.6 | 1393.7 | 1354.8
1000 kPa | 1455.6 | 1445.3 | 1434.8 | 1424.5 | 1414.4 | 1394.6 | 1355.8
2000 kPa | 1456.4 | 1446.1 | 1435.6 | 1425.3 | 1415.3 | 1395.5 | 1356.9
3000 kPa | 1457.1 | 1446.8 | 1436.4 | 1426.1 | 1416.1 | 1396.4 | 1357.9
4000 kPa | 1457.9 | 1447.6 | 1437.3 | 1427 | 1417 | 1397.4 | 1359
5000 kPa | 1458.7 | 1448.4 | 1438 | 1427.8 | 1417.8 | 1398 | 1360
7500 kPa | 1460.5 | 1450.3 | 1440 | 1429.9 | 1419.8 | 1400.2 | 1362.5
10000 kPa | 1462.4 | 1452.2 | 1441.9 | 1431.9 | 1421.9 | 1402.5 | 1365
15000 kPa | 1466.1 | 1455.9 | 1445.7 | 1435.7 | 1425.9 | 1406.8 | 1369.7
20000 kPa | 1469.6 | 1459.6 | 1449.5 | 1439.5 | 1429.9 | 1411 | 1374.3
25000 kPa | 1473.1 | 1463.1 | 1453.1 | 1443.3 | 1433.7 | 1415.1 | 1378.8
30000 kPa | 1476.5 | 1466.6 | 1456.7 | 1446.9 | 1437.4 | 1419 | 1383.2
35000 kPa | 1479.8 | 1470 | 1460.3 | 1450.5 | 1441.1 | 1422.9 | 1387.5
